Assay results from publication PMC3438169 (PLoS ONE, 2012).
*1 amine or outer side, *2 acyl side, *3 side chain or, on linkers, in order; H or OH if unused. Where a SMILES comes first, the peptide text is derived from it. [ ]: non-standard residue; d: D form. dAla(ψthiazole) = C[C@@H](N[*:1])c1nc(C(=O)[*:2])cs1; Trp(4-OMe) = COc1cccc2[nH]cc(C[C@H](N)C(=O)O)c12; dAbu = CC[C@@H](N)C(=O)O; Dha = C=C(N)C(=O)O; Sar = CNCC(=O)O

Columns and labels:
RKO = assay: Cell viability (CellTiter-Glo), RKO with siRNA or mEF-G1 variants; type: cell-based, human
Experimental: (§1) HCT116 (ATCC, CCL-247) and RKO (ATCC, CRL-2577) cell lines were maintained in a humidified incubator at 37°C and 5% CO2 in RPMI1640 supplemented with 10% FBS. Cell viability was determined using the CellTiter-Glo luminescent cell viability assay (Promega). […] Subsequently, 40 µl of CellTiter-Glo reagent was added to each well and luminescence recorded on an Envision plate reader (Perkin Elmer). Each treatment condition was tested in triplicate and compared to an equivalent volume of DMSO as control.
(§2) Non-targeting (NT) or GFM1 siRNA pools were obtained from Dharmacon (ON-TARGETplus SMART pool D-001810 and L-013685). HCT116 and RKO cells were reverse transfected in 6-well plates using RNAiMax (Invitrogen) and 25 nM siRNA. After 2 days, cells were harvested by trypsinization and re-plated into 6-well plates for western blot analysis or into 384-well plates for compound treatments and cell viability determination using CellTiter-Glo as described above.
(§3) The human GFM1 cDNA (encoding mEF-G1, Table 2) was mutagenized in pENTR221 (Invitrogen) using QuikChangeII XL site-directed mutagenesis (Stratagene). The following point mutations were introduced: C1355T (encoding S452L), C1481T (encoding S494F) and T2078A (encoding L693Q). The GFM1 cDNAs were then subcloned into the mammalian expression vector pLenti4/TO/V5 using LR clonase II (Invitrogen) and sequence-verified. The pLenti4 constructs were then co-transfected with a lentiviral plasmid mix (encoding LP1, LP2 and VSV-G) into 293T cells, and viral particles were harvested after 72 h and used to infect HCT116 and RKO cells. Stable cell lines were generated by selection with 400 µg/ml Zeocin and plated into 6-well plates for western blot analysis or into 384-well plates for compound treatments and cell viability determination using CellTiter-Glo as described above.

P. aeruginosa EF-G1 = biological target: T1, P. aeruginosa EF-G1 (Pseudomonas aeruginosa, UniProt Q9HWD2); assay: Co-crystal structure of EF-G1 with argyrin B; type: binding; settings: PDB 4FN5, 2.9 Å
T1 construct: P. aeroginosa fusA1 encoding full-length EF-G was PCR amplified from pET28a-PaEFG-Nhis; made in house; host or cells: E. coli BL21 (DE3)
Experimental: BL21 (DE3) cells harboring pET28a-PaEFG-Nhis were grown in Terrific Broth containing 100 µg/ml kanamycin. EF-G1 expression was induced using 1 mM IPTG. Cell pellets were resuspended and lysed using a microfluidizer, after which ultracentrifugation was performed. Purification was done using NiNTA resin followed by removal of the N-terminal Histidine tag with thrombin protease. The protein was further purified using a Mono Q column and was then concentrated and loaded onto a HiLoad Superdex 200 26/60 column, exchanging the protein into 25 mM Tris-HCl pH 7.5, 150 mM NaCl and 1 mM TCEP. […] Sitting drop vapor diffusion method was used for crystallization, with the crystallization well containing 100 mM Tris-HCl pH 7.5, 18% PEG 3350 and 200 mM sodium nitrate, and the drop containing a 1∶1 volume of protein and crystallization solution. After crystals formed they were subsequently cryoprotected using the crystallization solution with the addition of 20% glycerol, followed by flash freezing directly into liquid nitrogen.
The data were measured from a single crystal maintained at 100°K, and the reflections were indexed, integrated, and scaled using autoPROC [27], [28]. The spacegroup of the complex is C2 with 1 molecule in the asymmetric unit. The structure was determined with PHASER [29] using molecular replacement methods with a starting model of Thermus thermophilus EF-G (PDB Code 2BM0). […]

P. aeruginosa = assay: Broth microdilution susceptibility to argyrin B, P. aeruginosa strains; type: cell-based; settings: for Susceptibility to argyrin B: broth microdilution
HCT116 = assay: Cell viability (CellTiter-Glo), HCT116 with siRNA or mEF-G1 variants; type: cell-based, human; settings: 7 days
Experimental: as §1, §2, §3

C=C1NC(=O)CN(C)C(=O)CNC(=O)[C@H](Cc2c[nH]c3cccc(OC)c23)NC(=O)[C@H](Cc2c[nH]c3ccccc23)NC(=O)c2csc(n2)[C@@H](C)NC(=O)[C@@H](CC)NC1=O [argyrin B] (cyclo([dAbu][dAla(ψthiazole)]W[Trp(4-OMe)]G[Sar][Dha])) was tested, and the “Lowering of IC50 by knock down of mEF-G1” value (RKO; GFM1 siRNA, 7 days, CellTiter Glo) was about 3.3 fold, the “Sensitivity under hypoxic culture conditions (in words)” value (RKO; hypoxia, data not shown) was “became less sensitive” and the “Decrease of susceptibility on expression of mEF-G1 L693Q” value (RKO; mEF-G1 L693Q, 7 days) was 7 fold. For the same compound, the “Sensitivity change on expression of mEF-G1 S452L and S494F (in words)” value (RKO; mEF-G1 S452L and S494F, 7 days) was “only marginal effects”, the “Sensitivity change on overexpression of mEF-G1 WT (in words)” value (RKO; mEF-G1 WT stable overexpression, 7 days) was “did not alter the argyrin B-sensitivity” and the “Binding site in co-crystal structure” value (P. aeruginosa EF-G1) was “bound at the interface of domains III and V”. The “Susceptibility to argyrin B” value (P. aeruginosa; P. aeruginosa ATCC 12055 (parent of ATCC 35151)) was 8 µg/mL, the “Susceptibility to argyrin B” value (P. aeruginosa; P. aeruginosa ATCC 35151 (Z61), hypersensitive) was 0.125 to 0.25 µg/mL and the “Susceptibility to argyrin B” value (P. aeruginosa; P. aeruginosa CDA0055 (Z61, FusA1 S417L)) was 64 µg/mL. For the same compound, the “Susceptibility to argyrin B” value (P. aeruginosa; P. aeruginosa CDA0056 (Z61, FusA1 S459F)) was 8 µg/mL, the “Susceptibility to argyrin B” value (P. aeruginosa; P. aeruginosa CDA0061 (Z61, FusA L663Q)) was over 128 µg/mL and the “Susceptibility to argyrin B” value (P. aeruginosa; P. aeruginosa CDR0052 (K767, FusA1 T671A)) was over 128 µg/mL. For the same compound, the “Susceptibility to argyrin B” value (P. aeruginosa; P. aeruginosa CDR0054 (K767, FusA1 S459F)) was over 128 µg/mL, the “Susceptibility to argyrin B” value (P. aeruginosa; P. aeruginosa CDR0055 (K767, FusA1 S417L)) was over 128 µg/mL and the “Susceptibility to argyrin B” value (P. aeruginosa; P. aeruginosa CDR0056 (K767, FusA1 Y683C)) was over 128 µg/mL. For the same compound, the “Susceptibility to argyrin B” value (P. aeruginosa; P. aeruginosa CDR0057 (K767, FusA1 P486S)) was over 128 µg/mL, the “Susceptibility to argyrin B” value (P. aeruginosa; P. aeruginosa CDR0058 (K767, FusA1 P414S)) was over 128 µg/mL and the “Susceptibility to argyrin B” value (P. aeruginosa; P. aeruginosa K767 (PAO1, prototroph)) was 8 µg/mL. The “Sensitivity of mutants to argyrin B (in words)” value (P. aeruginosa; P. aeruginosa Z61 mutants with S417L and S459F substitutions) was “still partially sensitive”, the “Lowering of IC50 by knock down of mEF-G1” value (HCT116; HCT116, GFM1 siRNA, CellTiter Glo) was “circa 9.6 fold” and the “Decrease of susceptibility on expression of mEF-G1 L693Q” value (HCT116; HCT116, mEF-G1 L693Q) was 4.7 fold. For the same compound, the “Sensitivity change on expression of mEF-G1 S452L and S494F (in words)” value (HCT116; HCT116, mEF-G1 S452L and S494F) was “only marginal effects” and the “Sensitivity change on overexpression of mEF-G1 WT (in words)” value (HCT116; HCT116, mEF-G1 WT stable overexpression) was “did not alter the argyrin B-sensitivity”.
